Test results taken from ChEMBL document CHEMBL5724806, “Unraveling interindividual differences and functional consequences of gut microbial metabolism of immunosuppressants” (2024).

How the values were obtained:
Assay type in all cases: ADME
[1] = The drug is tested on Lactobacillus fermentum strain: DSM20052 for biotransformation under anaerobic condition. The drug concentrations were measured over 6 timepoints collected between 0 and 12 hours of incubation by liquid-chromatography-coupled mass spectrometry (LC–MS); design: dose 5 uM, timepoint 0, 1.5, 3, 6, 9, 12 hours; conditions: limosilactobacillus fermentum, 5 µM
[2] = The drug is tested on the gut metagenome community of A-05 with ENA study accession number: PRJEB31790 for biotransformation under anaerobic condition. The drug concentrations were measured over 7 timepoints collected between 0 and 12 hours of incubation by liquid-chromatography-coupled mass spectrometry (LC–MS); design: dose 5 uM, timepoint 0, 0.75, 1.5, 3, 6, 9, 12 hours; conditions: 5 µM
[3] = The drug is tested on the gut metagenome community of A-08 with ENA study accession number: PRJEB31790 for biotransformation under anaerobic condition. The drug concentrations were measured over 7 timepoints collected between 0 and 12 hours of incubation by liquid-chromatography-coupled mass spectrometry (LC–MS); design: dose 5 uM, timepoint 0, 0.75, 1.5, 3, 6, 9, 12 hours; conditions: 5 µM
[4] = The drug is tested on Enterococcus faecalis strain: ATCC29212 for biotransformation under anaerobic condition. The drug concentrations were measured over 6 timepoints collected between 0 and 12 hours of incubation by liquid-chromatography-coupled mass spectrometry (LC–MS); design: dose 5 uM, timepoint 0, 1.5, 3, 6, 9, 12 hours; conditions: 5 µM
[5] = The drug is tested on Escherichia coli strain: DSM27469 for biotransformation under microaerobic condition. The drug concentrations were measured over 6 timepoints collected between 0 and 12 hours of incubation by liquid-chromatography-coupled mass spectrometry (LC–MS); design: dose 5 uM, timepoint 0, 1.5, 3, 6, 9, 12 hours; conditions: 5 µM
[6] = The drug is tested on the gut metagenome community of P-02 with ENA study accession number: PRJEB31790 for biotransformation under microaerobic condition. The drug concentrations were measured over 7 timepoints collected between 0 and 12 hours of incubation by liquid-chromatography-coupled mass spectrometry (LC–MS); design: dose 5 uM, timepoint 0, 0.75, 1.5, 3, 6, 9, 12 hours; conditions: 5 µM
[7] = The drug is tested on the gut metagenome community of A-09 with ENA study accession number: PRJEB31790 for biotransformation under microaerobic condition. The drug concentrations were measured over 7 timepoints collected between 0 and 12 hours of incubation by liquid-chromatography-coupled mass spectrometry (LC–MS); design: dose 5 uM, timepoint 0, 0.75, 1.5, 3, 6, 9, 12 hours; conditions: 5 µM
[8] = The drug is tested on Lactobacillus reuteri strain: DSM20016 for biotransformation under anaerobic condition. The drug concentrations were measured over 6 timepoints collected between 0 and 12 hours of incubation by liquid-chromatography-coupled mass spectrometry (LC–MS); design: dose 5 uM, timepoint 0, 1.5, 3, 6, 9, 12 hours; conditions: limosilactobacillus reuteri, 5 µM
[9] = The drug is tested on Lactobacillus fermentum strain: DSM20052 for biotransformation under microaerobic condition. The drug concentrations were measured over 6 timepoints collected between 0 and 12 hours of incubation by liquid-chromatography-coupled mass spectrometry (LC–MS); design: dose 5 uM, timepoint 0, 1.5, 3, 6, 9, 12 hours; conditions: limosilactobacillus fermentum, 5 µM
[10] = The drug is tested on Enterococcus faecalis strain: ATCC29212 for biotransformation under microaerobic condition. The drug concentrations were measured over 6 timepoints collected between 0 and 12 hours of incubation by liquid-chromatography-coupled mass spectrometry (LC–MS); design: dose 5 uM, timepoint 0, 1.5, 3, 6, 9, 12 hours; conditions: 5 µM
[11] = The drug is tested on Alloscardovia omnicolens strain: DSM21503 for biotransformation under microaerobic condition. The drug concentrations were measured over 6 timepoints collected between 0 and 12 hours of incubation by liquid-chromatography-coupled mass spectrometry (LC–MS); design: dose 5 uM, timepoint 0, 1.5, 3, 6, 9, 12 hours; conditions: 5 µM
[12] = The drug is tested on Coprococcus comes strain: ATCC27758 for biotransformation under anaerobic condition. The drug concentrations were measured over 6 timepoints collected between 0 and 12 hours of incubation by liquid-chromatography-coupled mass spectrometry (LC–MS); design: dose 5 uM, timepoint 0, 1.5, 3, 6, 9, 12 hours; conditions: 5 µM
[13] = The drug is tested on Bifidobacterium adolescentis strain: DSM20083 for biotransformation under anaerobic condition. The drug concentrations were measured over 6 timepoints collected between 0 and 12 hours of incubation by liquid-chromatography-coupled mass spectrometry (LC–MS); design: dose 5 uM, timepoint 0, 1.5, 3, 6, 9, 12 hours; conditions: 5 µM
[14] = The drug is tested on the gut metagenome community of A-06 with ENA study accession number: PRJEB31790 for biotransformation under microaerobic condition. The drug concentrations were measured over 7 timepoints collected between 0 and 12 hours of incubation by liquid-chromatography-coupled mass spectrometry (LC–MS); design: dose 5 uM, timepoint 0, 0.75, 1.5, 3, 6, 9, 12 hours; conditions: 5 µM
[15] = The drug is tested on the gut metagenome community of A-02 with ENA study accession number: PRJEB31790 for biotransformation under microaerobic condition. The drug concentrations were measured over 7 timepoints collected between 0 and 12 hours of incubation by liquid-chromatography-coupled mass spectrometry (LC–MS); design: dose 5 uM, timepoint 0, 0.75, 1.5, 3, 6, 9, 12 hours; conditions: 5 µM
[16] = The drug is tested on Gemella morbillorum strain: DSM20572 for biotransformation under anaerobic condition. The drug concentrations were measured over 6 timepoints collected between 0 and 12 hours of incubation by liquid-chromatography-coupled mass spectrometry (LC–MS); design: dose 5 uM, timepoint 0, 1.5, 3, 6, 9, 12 hours; conditions: 5 µM
[17] = The drug is tested on the gut metagenome community of T-01 with ENA study accession number: PRJEB31790 for biotransformation under microaerobic condition. The drug concentrations were measured over 7 timepoints collected between 0 and 12 hours of incubation by liquid-chromatography-coupled mass spectrometry (LC–MS); design: dose 5 uM, timepoint 0, 0.75, 1.5, 3, 6, 9, 12 hours; conditions: 5 µM
[18] = The drug is tested on Capnocytophaga ochracea strain: DSM7271 for biotransformation under microaerobic condition. The drug concentrations were measured over 6 timepoints collected between 0 and 12 hours of incubation by liquid-chromatography-coupled mass spectrometry (LC–MS); design: dose 5 uM, timepoint 0, 1.5, 3, 6, 9, 12 hours; conditions: 5 µM
[19] = The drug is tested on the gut metagenome community of A-07 with ENA study accession number: PRJEB31790 for biotransformation under microaerobic condition. The drug concentrations were measured over 7 timepoints collected between 0 and 12 hours of incubation by liquid-chromatography-coupled mass spectrometry (LC–MS); design: dose 5 uM, timepoint 0, 0.75, 1.5, 3, 6, 9, 12 hours; conditions: 5 µM
[20] = The drug is tested on Eubacterium eligens strain: DSM3376 for biotransformation under anaerobic condition. The drug concentrations were measured over 6 timepoints collected between 0 and 12 hours of incubation by liquid-chromatography-coupled mass spectrometry (LC–MS); design: dose 5 uM, timepoint 0, 1.5, 3, 6, 9, 12 hours; conditions: lachnospira eligens, 5 µM
[21] = The drug is tested on the gut metagenome community of P-04 with ENA study accession number: PRJEB31790 for biotransformation under anaerobic condition. The drug concentrations were measured over 7 timepoints collected between 0 and 12 hours of incubation by liquid-chromatography-coupled mass spectrometry (LC–MS); design: dose 5 uM, timepoint 0, 0.75, 1.5, 3, 6, 9, 12 hours; conditions: 5 µM
[22] = The drug is tested on Gemella haemolysans strain: DSM107751 for biotransformation under microaerobic condition. The drug concentrations were measured over 6 timepoints collected between 0 and 12 hours of incubation by liquid-chromatography-coupled mass spectrometry (LC–MS); design: dose 5 uM, timepoint 0, 1.5, 3, 6, 9, 12 hours; conditions: 5 µM
[23] = The drug is tested on Bacteroides fragilis strain: DSM2151 for biotransformation under anaerobic condition. The drug concentrations were measured over 6 timepoints collected between 0 and 12 hours of incubation by liquid-chromatography-coupled mass spectrometry (LC–MS); design: dose 5 uM, timepoint 0, 1.5, 3, 6, 9, 12 hours; conditions: 5 µM
[24] = The drug is tested on the gut metagenome community of T-03 with ENA study accession number: PRJEB31790 for biotransformation under microaerobic condition. The drug concentrations were measured over 7 timepoints collected between 0 and 12 hours of incubation by liquid-chromatography-coupled mass spectrometry (LC–MS); design: dose 5 uM, timepoint 0, 0.75, 1.5, 3, 6, 9, 12 hours; conditions: 5 µM
[25] = The drug is tested on the gut metagenome community of P-02 with ENA study accession number: PRJEB31790 for biotransformation under anaerobic condition. The drug concentrations were measured over 7 timepoints collected between 0 and 12 hours of incubation by liquid-chromatography-coupled mass spectrometry (LC–MS); design: dose 5 uM, timepoint 0, 0.75, 1.5, 3, 6, 9, 12 hours; conditions: 5 µM

Measured: Bacterial Biotransformation

CCC(C)(C)C(=O)O[C@H]1C[C@@H](C)C=C2C=C[C@H](C)[C@H](CC[C@@H]3C[C@@H](O)CC(=O)O3)[C@H]21 [SIMVASTATIN]
Compound metabolized: [10] | [12] | [15]
Compound NOT metabolized: all other assays above

CO[C@H]1C[C@@H]2CC[C@@H](C)[C@@](O)(O2)C(=O)C(=O)N2CCCC[C@H]2C(=O)O[C@H]([C@H](C)C[C@@H]2CC[C@@H](O)[C@H](OC)C2)CC(=O)[C@H](C)/C=C(\C)[C@@H](O)[C@@H](OC)C(=O)[C@H](C)C[C@H](C)/C=C/C=C/C=C/1C [SIROLIMUS]
Compound metabolized: [2] | [3] | [4] | [7] | [10] | [12] | [14] | [15] | [16] | [19] | [20] | [21]
Compound NOT metabolized: all other assays above

C=CC[C@@H]1/C=C(\C)C[C@H](C)C[C@H](OC)[C@H]2O[C@@](O)(C(=O)C(=O)N3CCCC[C@H]3C(=O)O[C@H](/C(C)=C/[C@@H]3CC[C@@H](O)[C@H](OC)C3)[C@H](C)[C@@H](O)CC1=O)[C@H](C)C[C@@H]2OC.O [TACROLIMUS]
Compound metabolized: [3] | [4] | [7] | [12] | [14] | [15] | [17] | [19]
Compound NOT metabolized: all other assays above
